# Columns and labels:
# Format in all cases: physicochemical
# [1] = Electrochemical impedance spectroscopy (PEIS), Z-fitting to ideal Randle equivalent circuit; conditions: PEIS Z-fit
# [2] = Permeability through AMVN anion-exchange membrane; conditions: low ionic-conductivity AMVN membrane
# Text: Crossover of the TEMPO species is critical to RFB lifetime as it lowers the catholyte capacity through material loss and the anolyte capacity through chemical/electrochemical side reactions.
# [3] = Viscosity of solutions versus volumetric capacity; conditions: compared with TMAP-TEMPO; reduced (uncharged) state
# Text: When determining the maximum cycling concentration with the water-miscible i-TEMPODs, the active molecule solubility no longer limits volumetric capacity as the interaction between the dissolved species and the water molecules are very thermodynamically favorable, and each TEMPO dimer is able to dissolve with a minimal amount of coordinated water. Instead, the cycling concentration will be limited by the electrolyte viscosity and its relation to pumping energy cost. The viscosity of representative TEMPO monomer and dimer solutions was experimentally measured at various volumetric capacities in their reduced (uncharged) states. FIG. 35A compares the viscosity of the i-TEMPODs to previously known TEMPO monomers, which are designated “OH”, “Nine”, and “TMAP”. Descriptions of these monomers can be found in: T. Liu, X. Wei, Z. Nie, V. Sprenkle, W. Wang, A Total Organic Aqueous Redox Flow Battery Employing a Low Cost and Sustainable Methyl Viologen Anolyte and 4-HO-TEMPO Catholyte. Adv. Energy Mater. 6 (2016); T. Janoschka, N. Martin, M. D. Hager, U. S. Schubert, An Aqueous Redox-Flow Battery with High Capacity and Power. The TEMPTMA/MV System. Angew. Chemie—Int. Ed. 55, 14427-14430 (2016); and Y. Liu, M. A. Goulet, L. Tong, Y. Liu, Y. Ji, L. Wu, R. G. Gordon, M. J. Aziz, Z. Yang, T. Xu, A Long-Lifetime All-Organic Aqueous Flow Battery Utilizing TMAP-TEMPO Radical. Chem. 5, 1861-1870 (2019). […]
structure (smiles),measurement,setting,value
CC1(C)CC([N+](C)(C)C2CC(C)(C)N([O])C(C)(C)C2)CC(C)(C)N1[O] [i-TEMPOD-1],C1,[1],264.7 uF
same,Rct,[1],17.43 Ohm
same,Ru,[1],27.54 Ohm
same,crossover with the AMVN membrane,[2],no detectible crossover
same,viscosity at a given volumetric capacity,[3],nearly equal viscosity
